From patent publication US5847047A, “Antimicrobial composition of a polymer and a peptide forming amphiphilic helices of the magainin-type” (priority 1995, dated 1998)
Where a SMILES comes first, the peptide text is derived from it. Where no end group is shown, it is not given here.

Experiments:
[1] = tested on: E. coli; assay: Antimicrobial activity of soluble oligopeptides, microtiter growth inhibition (MIC); type: cell-based; conditions: soluble peptide, LB broth, 37° C.
Procedure: (§1) The term "MIC" refers to minimal inhibitory concentration and will be defined as the lowest concentration of either soluble peptide or peptide immobilized on a polymer that results in total kill of bacteria.
(§2) Typically, assays for antimicrobial activity of soluble oligopeptide compositions were carried out in microtiter wells. Each well was charged with 150 μl of LB broth containing cells at a final concentration of between 1×10^6 to 1×10^7 cells/ml and oligopeptide at final concentrations of 1×10^-3 to 1×10^-6 M. It is preferred that the oligopeptides be dissolved in water prior to addition to the assay medium and that cells be inoculated from mid-log phase cultures. […] Cultures showing cell growth inhibition were incubated for an additional 15 hr. at which time a final absorbance reading was taken. FIGS. 4a-d illustrate the cell growth inhibition of E. coli cultures incubated in the presence of various oligopeptides.
(§3) All manipulations with microorganisms involved the application of standard sterile techniques employed in microbiology. All cells were grown at 37° C. Cell concentration was measured by optical density measurements at 600 nm in a Perkin Elmer Model 552 UV/VIS spectrophotometer. The microorganisms used were strains of E. coli. and S. aureus. On the day prior to the assay, an overnight culture was prepared. On the following morning, the stationary phase cells were subcultured and allowed to grow to mid-log phase.
(§4) Each well was charged with LB Broth (150 mcL). The oligopeptide samples were dissolved in water and were added to achieve the appropriate final oligopeptide concentrations (ranging from 1×10^-3 to 1×10^-6 M) Finally, cells suspended in LB medium were added to a final concentration of between 1×10^6 to 1×10^7 cells/mL. The microtiter plate was covered and allowed to gently rotate in an orbital shaker. […] Control samples used for all experiments were: (a) LB broth only=uninoculated control; (b) LB broth only+cells=inoculated control.
In FIGS. 4a-d cell growth inhibition is plotted as molar concentration of antimicrobial peptide as a function of the number of cells killed/ml. FIG. 4a-d illustrates the activity of the core oligopeptide, the N-addition analogue of formula II, the N-addition analogue of formula III, and the N-addition analogue of formula IV, respectively. All cultures were actively growing in log-phase and at a cell concentration of 2.0×10^7 cells/ml.

[2] = tested on: S. aureus; assay: as above; type: cell-based; conditions: soluble peptide, LB broth, 37° C.
Procedure: as §1, §2, §3, §4

[3] = tested on: E. coli; assay: Shake flask method for peptides covalently bound to polyamide resin (CFU count); type: cell-based; conditions: for % Reduction E. coli: immobilized peptide on EDA-PepsynK, determined as described in Example 9; for MIC E. coli: concentration of oligopeptide immobilized on PepsynK resin via EDA linker, shake flask, phosphate buffer pH 7.2, 37° C.
Procedure: (§5) Occasionally, a shake flask method was employed for insoluble articles. In the shake flask method, 75 mL of 0.6 mM phosphate buffer, pH 7.2 and 0.100 mL of the stock cell culture and the oligopeptide sample were added to a 250 mL polystyrene tissue culture flask. The flasks were incubated in a shaking water bath at 37° C. At specified times (1 hour and 24 hours), an aliquot (0.100 mL) was removed from the shake flask and serial dilutions ranging from 10 to 1000-fold were made to allow the enumeration of cells on agar plates. Each agar plate was inoculated with 0.200 mL of the diluted cell suspension, and the suspension was uniformly spread on the plate. Colony-forming units CFU on the agar plates were counted after 24 hours in an incubator (37° C.). Cells were identified by visual observation and use of a colony counter. Total CFU/mL was determined by correcting the cell count for the dilution factor.
Samples of peptides corresponding to the amino acid sequences SEQ ID NO:8, SEQ ID NO:13, SEQ ID NO:14, SEQ ID NO:15 and SEQ ID NO:1, were covalently linked to the polyamide resin PepSyn K as described in Example 10 and were tested for antimicrobial activity. Five compositions (PEPSYNK-LKP, PEPSYNK-LKPGK, PEPSYNK-LKPG2 K, PEPSYNK-LKPG3 K, and PEPSYNK-KGLKP) were tested over a range of 0 to 5 mg/ml of oligopeptide. Since the covalently linked oligopeptide/polymer compositions were insoluble, the protocol for testing antimicrobial activity was modified from that for the soluble peptide compositions of Example 2. Here, a shake flask method was employed.
as §5, with “In” for “Occasionally, a shake flask method was employed for insoluble articles. In”, “oligopeptide samples, ranging from 0 to 5 mg/ml of oligopeptide” for “oligopeptide sample”, “dilutions were made” for “dilutions”, “1000-fold” for “1000-fold were made”, “enumeration or” for “enumeration of”, “factor. In this manner the minimal inhibitory concentration (MIC) of oligopeptide for covalently linked compositions corresponding to PEPSYNK-LKP, PEPSYNK-LKPGK, PEPSYNK-LKPG2 K, PEPSYNK-LKPG3 K, and PEPSYNK-KGLKP were determined.” for “factor.”
The bactericidal activity for each immobilized peptide was determined as described in Example 9. The structures and the bactericidal activities of the immobilized peptides are shown in Table V. The relative activities against E. coli are consistent with what is known about the soluble peptides. […] The reverse magainin is a much poorer bactericide than its normal sequence.

[4] = tested on: human erythrocytes
Procedure: A 5.0% stock cell solution of human erythrocytes in phosphate buffered saline (PBS) was prepared by suspending 2.0 mL packed human erythrocytes in 38 mL of phosphate buffered saline (10 mM sodium phosphate, 120 mM sodium chloride, 2.7 mM potassium chloride, pH 7.5). Samples of the four compositions recited above were added to microfuge tubes containing 0.5 mL of cell solution and 0.5 mL of PBS. Upon addition of sample, the vials were capped, gently homogenized, then allowed to gently shake in an incubator at 37° C. for 30 minutes. The samples were centrifuged to sediment the cells. The supernatants were transferred to cuvettes and the absorbances at 414 nm were read in a Perkin Elmer 552 spectrophotometer. The 0 and 100% hemolysis controls were PBS and PBS +1.0% Triton X-100, respectively.

| Compound | Minimal Inhibitory Concentration E. coli [1] [µg/mL] | Minimal Inhibitory Concentration S. aureus [2] [µg/mL] | % Reduction E. coli [3] [%] | % Hemolysis at >6 mg/mL [4] [%] | MIC E. coli [3] [µg/mL] |
| --- | --- | --- | --- | --- | --- |
| CC(C)C[C@H](NC(=O)[C@H](CCCCN)NC(=O)[C@H](CC(C)C)NC(=O)[C@H](CC(C)C)NC(=O)[C@H](CCCCN)NC(=O)[C@H](CCCCN)NC(=O)[C@H](CC(C)C)NC(=O)[C@H](CC(C)C)NC(=O)[C@H](CCCCN)NC(=O)[C@H](CC(C)C)NC(=O)[C@H](CC(C)C)NC(=O)[C@H](CCCCN)NC(=O)[C@H](CCCCN)NC(=O)[C@H](CC(C)C)NC(=O)CNC(=O)[C@@H](N)CCCCN)C(=O)O [Formula II, KGLKKLLKLLKKLLKL] (H-KGLKKLLKLLKKLLKL-OH) | 7.8 | 15.6 |  |  |  |
| CC(C)C[C@H](NC(=O)[C@H](CCCCN)NC(=O)[C@H](CC(C)C)NC(=O)[C@H](CC(C)C)NC(=O)[C@H](CCCCN)NC(=O)[C@H](CCCCN)NC(=O)[C@H](CC(C)C)NC(=O)[C@H](CC(C)C)NC(=O)[C@H](CCCCN)NC(=O)[C@H](CC(C)C)NC(=O)[C@H](CC(C)C)NC(=O)[C@H](CCCCN)NC(=O)[C@H](CCCCN)NC(=O)[C@H](CC(C)C)NC(=O)CNC(=O)CNC(=O)[C@@H](N)CCCCN)C(=O)O [Formula III, KGGLKKLLKLLKKLLKL] (H-KGGLKKLLKLLKKLLKL-OH) | 7.8 | 62.5 |  |  |  |
| CC(C)C[C@H](NC(=O)[C@H](CCCCN)NC(=O)[C@H](CC(C)C)NC(=O)[C@H](CC(C)C)NC(=O)[C@H](CCCCN)NC(=O)[C@H](CCCCN)NC(=O)[C@H](CC(C)C)NC(=O)[C@H](CC(C)C)NC(=O)[C@H](CCCCN)NC(=O)[C@H](CC(C)C)NC(=O)[C@H](CC(C)C)NC(=O)[C@H](CCCCN)NC(=O)[C@H](CCCCN)NC(=O)[C@H](CC(C)C)NC(=O)CNC(=O)CNC(=O)CNC(=O)[C@@H](N)CCCCN)C(=O)O [Formula IV, KGGGLKKLLKLLKKLLKL] (H-KGGGLKKLLKLLKKLLKL-OH) | 7.8 | 15.6 |  |  |  |
| CC(C)C[C@H](NC(=O)[C@H](CCCCN)NC(=O)[C@H](CC(C)C)NC(=O)[C@H](CC(C)C)NC(=O)[C@H](CCCCN)NC(=O)[C@H](CCCCN)NC(=O)[C@H](CC(C)C)NC(=O)[C@H](CC(C)C)NC(=O)[C@H](CCCCN)NC(=O)[C@H](CC(C)C)NC(=O)[C@H](CC(C)C)NC(=O)[C@H](CCCCN)NC(=O)[C@H](CCCCN)NC(=O)[C@@H](N)CC(C)C)C(=O)O [Formula I] (H-LKKLLKLLKKLLKL-OH) | 15.6 | 31.2 |  |  |  |
| GIGKFLHSAKKFGKAFVGEIMNS (GIGKFLHSAKKFGKAFVGEIMNS; immobilized on EDA-PepsynK resin) [EDA-PepsynK reverse magainin2, reverse magainin 2 peptide immobilized on EDA-modified PepsynK resin] |  |  | 95.14 |  |  |
| PepsynK-KGLKP: peptide SEQ ID NO:1 covalently linked to polyamide resin PepSyn K via non-cleavable EDA linker (KGLKKLLKLLKKLLKL; also: covalently linked to PepSyn K resin via EDA linker) |  |  |  | > 0.7 | 888 |
| PepsynK-LKPG2K: peptide SEQ ID NO:14 covalently linked to polyamide resin PepSyn K via non-cleavable EDA linker (LKLLKKLLKLLKKLGGK; also: covalently linked to PepSyn K resin via EDA linker) |  |  |  | 1.2 | 1208 |
| PepsynK-LKPG3K: peptide SEQ ID NO:15 covalently linked to polyamide resin PepSyn K via non-cleavable EDA linker (LKLLKKLLKLLKKLGGGK; also: covalently linked to PepSyn K resin via EDA linker) |  |  |  | 12.7 | 938 |
| PepsynK-LKPGK: peptide SEQ ID NO:13 covalently linked to polyamide resin PepSyn K via non-cleavable EDA linker (LKLLKKLLKLLKKLGK; also: covalently linked to PepSyn K resin via EDA linker) |  |  |  | 0.7 | 2213 |
| Pepsynk-LKP: peptide SEQ ID NO:8 covalently linked to polyamide resin PepSyn K via non-cleavable EDA linker (LKKLLKLLKKLLKL; also: covalently linked to PepSyn K resin via EDA linker) |  |  |  | 0.9 | 807 |
| SNMIEGVFAKGFKKASHLFKGIG (SNMIEGVFAKGFKKASHLFKGIG; immobilized on EDA-PepsynK resin) [EDA-PepsynK magainin2, magainin 2 immobilized on EDA-modified PepsynK resin] |  |  | 100 |  |  |
| V-F-A-K-G-F-K-K-A-S-H-L-F-K-G-I-G (VFAKGFKKASHLFKGIG; immobilized on EDA-PepsynK resin) [EDA-PepsynK magainin 17-mer deletion, 17-mer deletion peptide of magainin 2 immobilized on EDA-modified PepsynK resin] |  |  | 99.3 |  |  |
